Assay results taken from ChEMBL document CHEMBL3870338, “Microwave assisted synthesis of novel tetrazole/sulfonamide derivatives based on octahydroacridine, xanthene and chromene skeletons as inhibitors of the carbonic anhydrases isoforms I, II, IV and VII” (Bioorg Med Chem Lett, 2017).

Columns and labels:
[1] = molecular target: Carbonic anhydrase 1 (Homo sapiens, UniProt P00915); assay: Inhibition of human recombinant carbonic anhydrase 1 expressed in Escherichia coli assessed as reduction in CO2 hydration preincubated for 15 mins prior to testing measured for 10 to 100 secs by stopped-flow assay
Carbonic anhydrase 1, sequence (P00915 whole entry): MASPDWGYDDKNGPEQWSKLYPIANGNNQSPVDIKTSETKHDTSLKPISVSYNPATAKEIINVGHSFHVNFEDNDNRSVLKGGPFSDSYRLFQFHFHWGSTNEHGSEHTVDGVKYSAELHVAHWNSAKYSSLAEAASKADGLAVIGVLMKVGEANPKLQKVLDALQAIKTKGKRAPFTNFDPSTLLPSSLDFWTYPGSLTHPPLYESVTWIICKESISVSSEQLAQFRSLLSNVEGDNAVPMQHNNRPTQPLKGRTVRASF

[2] = molecular target: Carbonic anhydrase 4 (Homo sapiens, UniProt P22748); assay: Inhibition of human recombinant carbonic anhydrase 4 expressed in Escherichia coli assessed as reduction in CO2 hydration preincubated for 15 mins prior to testing measured for 10 to 100 secs by stopped-flow assay
Carbonic anhydrase 4, sequence (P22748 whole entry): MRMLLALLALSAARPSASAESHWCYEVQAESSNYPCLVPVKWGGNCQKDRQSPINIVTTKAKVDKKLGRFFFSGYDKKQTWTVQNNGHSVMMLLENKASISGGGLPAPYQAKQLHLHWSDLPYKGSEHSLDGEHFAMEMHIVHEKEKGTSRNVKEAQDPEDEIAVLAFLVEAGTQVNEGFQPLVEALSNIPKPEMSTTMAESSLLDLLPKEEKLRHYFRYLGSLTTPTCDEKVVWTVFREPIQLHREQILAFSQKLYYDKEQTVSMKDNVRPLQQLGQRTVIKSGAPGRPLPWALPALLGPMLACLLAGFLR

[3] = molecular target: Carbonic anhydrase 7 (Homo sapiens, UniProt P43166); assay: Inhibition of human recombinant carbonic anhydrase 7 expressed in Escherichia coli assessed as reduction in CO2 hydration preincubated for 15 mins prior to testing measured for 10 to 100 secs by stopped-flow assay
Carbonic anhydrase 7, sequence (P43166 whole entry): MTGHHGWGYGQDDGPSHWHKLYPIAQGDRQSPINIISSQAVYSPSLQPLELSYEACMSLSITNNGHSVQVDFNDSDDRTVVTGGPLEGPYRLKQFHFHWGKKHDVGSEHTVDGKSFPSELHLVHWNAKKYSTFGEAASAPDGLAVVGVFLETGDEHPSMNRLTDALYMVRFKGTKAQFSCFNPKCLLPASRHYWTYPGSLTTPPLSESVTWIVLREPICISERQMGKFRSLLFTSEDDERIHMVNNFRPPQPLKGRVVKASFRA

[4] = molecular target: Carbonic anhydrase 2 (Homo sapiens, UniProt P00918); assay: Inhibition of human recombinant carbonic anhydrase 2 expressed in Escherichia coli assessed as reduction in CO2 hydration preincubated for 15 mins prior to testing measured for 10 to 100 secs by stopped-flow assay

Measured: Ki

N#CC1=C(N)OC2=C(C(=O)CCC2)C1c1ccc(-c2nnn[nH]2)cc1 (stereo not given)
> 10 µM: [1] | [2] | [3] | [4]

O=C1CCCC2=C1C(c1cccc(-c3nnn[nH]3)c1)C1=C(CCCC1=O)O2
> 10 µM: [1] | [2] | [3] | [4]

CC1(C)CC(=O)C2=C(C1)OC1=C(C(=O)CC(C)(C)C1)C2c1ccc(-c2nnn[nH]2)cc1
> 10 µM: [1] | [2] | [3] | [4]

CC1(C)CC(=O)C2=C(C1)OC(N)=C(C#N)C2c1cccc(-c2nnn[nH]2)c1 (stereo not given)
> 10 µM: [1] | [2] | [3] | [4]

O=Cc1ccc(-c2nnn[nH]2)cc1
> 10 µM: [1] | [2] | [3] | [4]

O=C1CCCC2=C1C(c1ccc(-c3nnn[nH]3)cc1)C1=C(CCCC1=O)O2
> 10 µM: [1] | [2] | [3] | [4]

CC1(C)CC(=O)C2=C(C1)OC1=C(C(=O)CC(C)(C)C1)C2c1cccc(-c2nnn[nH]2)c1
> 10 µM: [1] | [2] | [3] | [4]

CC1(C)CC(=O)C2=C(C1)OC(N)=C(C#N)C2c1ccc(-c2nnn[nH]2)cc1 (stereo not given)
> 10 µM: [1] | [2] | [3] | [4]

N#CC1=C(N)OC2=C(C(=O)CCC2)C1c1cccc(-c2nnn[nH]2)c1 (stereo not given)
> 10 µM: [1] | [2] | [3] | [4]

O=Cc1cccc(-c2nnn[nH]2)c1
> 10 µM: [1] | [2] | [3] | [4]
